Consider one molecule from patent US20190290576A1, “ANTI-MALARIAL PHARMACEUTICAL COMPOSITION” (Protopharma Limited, priority 2007, published 2019).

A short description of data set [1]: Storage stability of artemether in solvent systems, impurities by HPLC. The settings on record: in contact with water, ethanol, or propellants. The class given is physicochemical. From the text: Tables 1 and 2 show impurities present in Artemether API, and artemether in three solvent systems: 20% ethanol+80% propellant; 50% ethanol+50% propellant; 100% ethanol; and a medium chain triglyceride, in this case, the triglyceride sold under the registered trade mark Miglyol® 810. Miglyol® is a medium chain triglyceride containing saturated C8 and C10 fatty acids, typically between 65-80% of caprylic acid (C8:0) and 20-35% of capric acid (C10:0). The propellant used in these test was 1,1,1,2 tetrafluoroethane, sold under the registered trade mark Zephex® 134a. Similar results were obtained for the propellants butane, Zephex® 227 (1,1,1,2,3,3,3 heptafluoropropane) and for a mixture of butane and propane. […] In all other cases, the impurities are at levels that exceed those permitted under the ICH Harmonised Tripartite Guidelines for Impurities in New Drug Products without specific identification or further toxicological examination.

The conditions of data set [2]: animals, oral administration; cited from earlier work.

Consider `CO[C@H]1O[C@@H]2O[C@@]3(C)CC[C@H]4[C@H](C)CC[C@@H]([C@H]1C)[C@@]24OO3` [artemether], for which the “Stability of artemether in contact with solvents” value in data set [1] is reported as “not stable”. Further, in data set [2], the bioavailability is on record as 19-35%.
